The record followed here is PubChem BioAssay (NCI).

The structures appear in SMILES notation.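 Compound exposure: 48 hours, 5 concentrations, 96-well plates. TGI marks complete inhibition of growth.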

Test in all cases: NCI tumour cell line growth inhibition, 48 h
Experiment [1] has as its system 786-0 renal.
The subject of experiment [2] is ACHN renal.
Experiment [3] concerns DU-145 prostate.
Experiment [4] relates to HCT-116 colon.
Experiment [5] has as its system HL-60(TB) leukemia.
Experiment [6] deals with HOP-62 NSCLC.
For experiment [7], the system named is K-562 leukemia.
In experiment [8] the test system is MALME-3M melanoma.
Experiment [9] deals with MCF7 breast.
Experiment [10] concerns MDA-MB-231 breast.
The test system of experiment [11] is MDA-N.
Experiment [12] relates to NCI-H460 lung.
For experiment [13], the system named is NCI/ADR-RES ovarian.
Experiment [14] deals with OVCAR-3 ovarian.
In experiment [15] the test system is OVCAR-4 ovarian.
The subject of experiment [16] is RXF 393 renal.
Experiment [17] concerns SW-620 colon.
Experiment [18] has as its system T-47D breast.
Experiment [19] concerns UACC-257 melanoma.
Experiment [20] relates to UO-31 renal.

Regarding `Cc1cc(-c2nc3ccc(F)cc3s2)ccc1NC(=O)C(N)CCCCN` (stereo unspecified), the TGI in experiment [1] was determined as 8.76 µM; in experiment [2] it was 25.6 µM; in [3], 26.2 µM; in experiment [4] it was 10.3 µM; in experiment [5] it was 9.78 µM; in experiment [6], 12.7 µM. The TGI in experiment [7] is 8.2 µM; in [8], 34.1 µM; in experiment [9] it was 4.46 µM; in experiment [10], 23.1 µM; in experiment [11], 5 µM; in [12], 5.64 µM. Also, the TGI in [13] is 34.1 µM; in experiment [14] it was 22.4 µM; in experiment [15] it was 24.6 µM; in experiment [16], 25.3 µM; in [17], 7.93 µM; in experiment [18] it was 16.1 µM. Moreover, the TGI in experiment [19] was 28.1 µM; in experiment [20], 16.1 µM.
On to `CC1(C)C(CBr)=[N+]([O-])C(C)(C)N1O`, for which the TGI in experiment [1] is 9.78 µM; in experiment [2] it was greater than 8.86 µM; in [3], greater than 10 µM; in experiment [4], 5.27 µM; in experiment [5], greater than 6.81 µM; in experiment [6], greater than 10 µM. For the same compound, the TGI in experiment [7] was greater than 8.04 µM; in experiment [8], 7.06 µM; in experiment [9] it was greater than 10 µM; in experiment [10], greater than 10 µM; in experiment [11], greater than 10 µM; in experiment [12] it was greater than 10 µM. Also, the TGI in [13] was greater than 10 µM; in [14], greater than 6.74 µM; in experiment [15], 4.23 µM; in [16], 8.15 µM; in [17] it was 4.86 µM; in experiment [18], 5.24 µM. For the same compound, the TGI in [19] and in experiment [20] was greater than 10 µM in each case.
`C[n+]1c2ccccc2n2c3ccccc3c(NCc3ccco3)c(C#N)c21`: the TGI in experiment [1] was 12.8 µM; in experiment [2] it was 9.08 µM; in [3], greater than 22.1 µM; in experiment [4], 14.7 µM; in experiment [5] it was 8.69 µM; in experiment [6], 11.4 µM. Further, the TGI in [7] is greater than 21.1 µM; in experiment [8], 7.59 µM; in [9] it was 11.9 µM; in experiment [10], 16.6 µM; in [11], 10.9 µM; in experiment [12], 4.19 µM. In addition, the TGI in experiment [13] is 9.55 µM; in [14], greater than 49.6 µM; in [15], 10.7 µM; in [16], 6.21 µM; in experiment [17] it was 4.01 µM; in experiment [18] it was greater than 28.7 µM. In addition, the results for the TGI in experiment [19] and in experiment [20] were 57.4 µM and 7.63 µM, respectively.
As for `CCN(CC)CCOCCOCC1(c2ccc(Cl)c(Cl)c2)CCCCC1`, the TGI in experiment [1] was 9.07 µM; in experiment [2], 28.5 µM; in experiment [3], 22.1 µM; in [4], 18.8 µM; in experiment [5] it was 21 µM; in experiment [6], 22 µM. The TGI in experiment [7] is 12.7 µM; in experiment [8], 13.3 µM; in experiment [9], 20.3 µM; in experiment [10], 23 µM; in [11] it was 13.8 µM; in experiment [12], 13.3 µM. The TGI in experiment [13] was 24.3 µM; in [14], 22.3 µM; in experiment [15], 26.2 µM; in experiment [16], 17.6 µM; in [17] it was 21.9 µM; in experiment [18], 17.7 µM. Besides, the TGI is 9.57 µM in experiment [19] and 12.9 µM in experiment [20].
On to `C[C@H](CCC(=O)O)[C@H]1CC[C@H]2[C@@H]3[C@H](O)[C@H](O)[C@@H]4C[C@H](O)CC[C@]4(C)[C@H]3CC[C@]12C`, for which the TGI in experiment [1], in [2], in experiment [3], in [4], in experiment [5] and in experiment [6] was greater than 100 µM in each case. For the same compound, the TGI in [7], in experiment [8], in [9], in experiment [10], in experiment [11] and in experiment [12] was greater than 100 µM in each case. The TGI in [13], in experiment [15], in experiment [16], in [17], in experiment [18] and in experiment [19] was greater than 100 µM each time. Also, in experiment [20], the TGI is greater than 100 µM.
Take `NC1=Nc2ccccc2Sc2nccn21`: the TGI in [1] is 57.9 µM; in [2] it was 91 µM; in experiment [3] it was greater than 100 µM; in [4], greater than 100 µM; in experiment [5] it was 45 µM; in [6], 57.4 µM. Besides, the TGI in experiment [7] is 50 µM; in experiment [8], 34.6 µM; in [9], greater than 100 µM; in experiment [10], 35.9 µM; in experiment [11] it was 59.7 µM; in [12], greater than 100 µM. Also, the TGI was 72 µM in experiment [13]; 66 µM in [14]; greater than 100 µM in experiment [15]; 56.5 µM in [16]; greater than 100 µM in experiment [17]; 98.9 µM in experiment [18]. The TGI stood at 75 µM in [19] and 63.9 µM in [20].
Consider `CC(C)(C)OC(=O)NCC(c1c[nH]c2cc(Br)ccc12)c1c[nH]c2cc(Br)ccc12`, for which the TGI in [1] was 33.5 µM; in experiment [2], 30.3 µM; in experiment [3] it was 31.7 µM; in experiment [4] it was 31.4 µM; in experiment [5], 64.2 µM; in [6] it was 33.2 µM. The TGI is greater than 100 µM in experiment [7]; 31.7 µM in [8]; 34.7 µM in experiment [9]; 32.4 µM in [10]; 34.4 µM in experiment [11]; 48.7 µM in experiment [12]. Besides, the TGI in experiment [13] is 35.9 µM; in [14], 29.1 µM; in [15] it was 32.9 µM; in experiment [16] it was 32 µM; in experiment [17], greater than 100 µM; in [18] it was 35.2 µM. Further, the TGI in [19] amounted to 44.6 µM; in [20], 34.5 µM.
For the compound `C/C(CC(O)(C(F)(F)F)C(F)(F)F)=N\NC(N)=S`, the TGI in experiment [1], in experiment [2], in experiment [3], in experiment [4], in [5] and in experiment [6] was greater than 10 µM throughout. In addition, the TGI in experiment [7], in experiment [8], in experiment [9], in [10], in experiment [11] and in experiment [12] was greater than 10 µM in each case. For the same compound, the TGI in experiment [13], in experiment [14], in [15], in experiment [16], in experiment [17] and in experiment [18] was greater than 10 µM throughout. The TGI in [19] and in [20] was greater than 10 µM in each case.
`COP(=O)(/C=C/C(NC(=O)C(Cl)(Cl)Cl)c1ccccc1)OC` (stereo unspecified): the TGI in [1], in experiment [2], in [3], in experiment [4], in [5] and in experiment [6] was greater than 100 µM in each case. Moreover, the TGI in [7], in experiment [8], in [9], in experiment [10], in [11] and in experiment [12] was greater than 100 µM throughout. Moreover, the TGI in experiment [13], in experiment [14], in [15], in experiment [16], in [17] and in experiment [18] was greater than 100 µM each time. Moreover, the TGI in [19] and in experiment [20] was greater than 100 µM each time.
For `Cc1ccc2c(ccc3ncc(CNc4ccc(NS(C)(=O)=O)cc4)c32)[nH]1`, the TGI in experiment [1] is 39.4 µM; in [2] it was greater than 100 µM; in experiment [3], 42.6 µM; in experiment [4], 37.9 µM; in [5] it was 65.3 µM; in [6], 67.2 µM. The TGI in [7] was 46.3 µM; in experiment [8], 34.5 µM; in experiment [9], 44.5 µM; in experiment [10], 74.5 µM; in experiment [11], 32.1 µM; in experiment [12], 35.4 µM. Besides, the TGI is greater than 100 µM in [13]; 43.8 µM in experiment [14]; 58.9 µM in experiment [15]; 21.7 µM in experiment [16]; greater than 100 µM in [17]; 47.7 µM in [18]. Moreover, the results for the TGI in experiment [19] and in experiment [20] were 34.7 µM and 74.7 µM, respectively.
Regarding `COC(=O)c1ccc(Oc2nc3ccc(C(F)(F)F)cc3nc2-c2ccccc2)cc1`, the TGI in [1], in experiment [2], in [3], in experiment [4], in [5] and in experiment [6] was greater than 100 µM in each case. The TGI in experiment [7], in experiment [8], in experiment [9], in experiment [10], in experiment [11] and in experiment [12] was greater than 100 µM each time. Further, the TGI in experiment [13], in experiment [14], in [15], in experiment [16], in [17] and in experiment [18] was greater than 100 µM throughout. For the same compound, the TGI in experiment [19] and in experiment [20] was greater than 100 µM throughout.
As to `Cc1cn(CC2(CO)CCC2)c(=O)[nH]c1=O`, the TGI in experiment [1], in experiment [2], in experiment [3], in [4], in experiment [5] and in [6] was greater than 100 µM each time. Also, the TGI in experiment [7], in experiment [8], in experiment [9], in experiment [10], in [11] and in [12] was greater than 100 µM in each case. Besides, the TGI in [13], in [14], in experiment [15], in [16], in experiment [17] and in [18] was greater than 100 µM in each case. The TGI in experiment [19] and in experiment [20] was greater than 100 µM throughout.
For `CCOC(=O)C1=NN(c2ccc(C)cc2)C2(c3ccccc3)C=C(c3ccccc3)N(C)CCN12` (stereo unspecified), the TGI in experiment [1], in experiment [2], in [3], in experiment [4], in [5] and in experiment [6] was greater than 100 µM throughout. The TGI in experiment [7], in experiment [8], in experiment [9], in experiment [10], in experiment [11] and in [13] was greater than 100 µM each time. Also, the TGI in experiment [14], in [15], in [16], in [17], in experiment [18] and in experiment [19] was greater than 100 µM throughout. Further, the TGI in [20] was greater than 100 µM.
For the compound `C[C@H](CCC(=O)O)[C@H]1CC[C@H]2[C@@H]3[C@@H](O)C[C@@H]4C[C@H](O)CC[C@]4(C)[C@H]3C[C@H](O)[C@]12C`, the TGI in experiment [1], in experiment [2], in experiment [3], in experiment [4], in experiment [5] and in experiment [6] was greater than 100 µM each time. The TGI in experiment [7], in experiment [8], in [9], in [10], in [11] and in experiment [12] was greater than 100 µM throughout. The TGI in experiment [13], in [15], in experiment [16], in experiment [17], in [18] and in experiment [19] was greater than 100 µM throughout.
